Test results: patent US20060287313A1, “Isoquinoline compounds and methods of use thereof” (Inotek Pharmaceuticals Corporation, priority 2005, published 2006)

What was measured:
purified PARS enzyme = target: T1, purified PARS enzyme (Homo sapiens, UniProt P09874); assay: Purified PARS enzyme assay (Trevigen PARS inhibition assay kit); format: biochemical; conditions: Table 1, inhibitory effect on PARS; assay not given
T1 construct: purchased Trevigen, Gaithersburg, Md
Protocol: The assay is performed in 96 well ELISA plates according to instructions provided with a commercially available PARS inhibition assay kit (for example, from Trevigen, Gaithersburg, Md.).
The assay was performed in 96 well ELISA plates according to instructions provided with a commercially available PARS inhibition assay kit (Trevigen, Gaithersburg, Md.). Briefly, wells were coated with 1 mg/ml histone (50 μl/well) at 4 C overnight. Plates were then washed four times with PBS and then blocked by adding 50 μl Strep-Diluent (supplied with the kit). After incubation (1 h, 25° C.), the plates were washed four times with PBS. […] The reaction was allowed to proceed for 30 min at room temperature. After 4 washes in PBS, incorporated biotin was detected by peroxidase-conjugated streptavidin (1:500 dilution) and TACS Sapphire substrate.

PARS = target: T2, PARS (Mus musculus, UniProt P11103); assay: Cell protection assay: PARS activity in peroxynitrite-treated raw murine macrophages; format: cell-based; conditions: peroxynitrite 750 μM, 3H-NAD incorporation, calculated from a dose-response curve
T2 construct: endogenous in cells; host or cells: RAW murine macrophages
Protocol: The media was removed and replaced with 0.5 mL HEPES (pH 7.5) containing 0.01% digitonin and ^3H-NAD (0.5 μCi/mL, final concentration of NAD+ in buffer is […]) and the resultant mixture was allowed to stand for 20 minutes. […] The tubes were maintained at 4° C. for four hours, centrifuged at 1800 g for 10 minutes, and the supernatant removed. […] The contents of the tubes were then added to ScintiSafe Plus scintillation liquid (6.5 ml, Fisher Scientific) and radioactivity was measured using a liquid scintillation counter (Wallac, Gaithersburg, Md.).

T1 sequence (P09874 whole entry): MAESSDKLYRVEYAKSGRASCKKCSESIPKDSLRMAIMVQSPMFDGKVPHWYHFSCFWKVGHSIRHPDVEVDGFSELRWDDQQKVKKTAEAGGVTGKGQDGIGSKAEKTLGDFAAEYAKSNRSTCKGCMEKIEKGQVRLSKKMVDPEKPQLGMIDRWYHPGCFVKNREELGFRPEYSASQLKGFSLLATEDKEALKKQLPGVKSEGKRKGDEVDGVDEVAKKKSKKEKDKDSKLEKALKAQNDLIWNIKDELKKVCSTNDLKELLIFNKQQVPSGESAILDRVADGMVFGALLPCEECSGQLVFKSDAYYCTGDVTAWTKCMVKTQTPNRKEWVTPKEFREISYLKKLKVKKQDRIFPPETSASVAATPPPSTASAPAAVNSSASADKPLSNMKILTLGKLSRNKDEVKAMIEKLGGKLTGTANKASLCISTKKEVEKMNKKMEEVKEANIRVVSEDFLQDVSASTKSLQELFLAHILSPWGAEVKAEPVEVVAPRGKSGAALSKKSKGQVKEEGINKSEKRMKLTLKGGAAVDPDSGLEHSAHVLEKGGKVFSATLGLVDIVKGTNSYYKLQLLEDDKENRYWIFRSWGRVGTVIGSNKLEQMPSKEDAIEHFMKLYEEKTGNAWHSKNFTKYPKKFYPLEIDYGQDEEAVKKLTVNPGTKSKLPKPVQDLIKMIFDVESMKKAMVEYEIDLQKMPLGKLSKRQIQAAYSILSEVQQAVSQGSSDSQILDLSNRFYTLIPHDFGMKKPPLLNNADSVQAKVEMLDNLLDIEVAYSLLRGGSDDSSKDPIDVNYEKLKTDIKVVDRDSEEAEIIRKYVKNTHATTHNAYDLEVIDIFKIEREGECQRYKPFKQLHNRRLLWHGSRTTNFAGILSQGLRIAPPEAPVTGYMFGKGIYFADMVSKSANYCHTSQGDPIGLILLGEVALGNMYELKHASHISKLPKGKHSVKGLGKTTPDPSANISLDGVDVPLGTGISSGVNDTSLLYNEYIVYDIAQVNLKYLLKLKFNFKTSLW
T2 sequence (P11103 whole entry): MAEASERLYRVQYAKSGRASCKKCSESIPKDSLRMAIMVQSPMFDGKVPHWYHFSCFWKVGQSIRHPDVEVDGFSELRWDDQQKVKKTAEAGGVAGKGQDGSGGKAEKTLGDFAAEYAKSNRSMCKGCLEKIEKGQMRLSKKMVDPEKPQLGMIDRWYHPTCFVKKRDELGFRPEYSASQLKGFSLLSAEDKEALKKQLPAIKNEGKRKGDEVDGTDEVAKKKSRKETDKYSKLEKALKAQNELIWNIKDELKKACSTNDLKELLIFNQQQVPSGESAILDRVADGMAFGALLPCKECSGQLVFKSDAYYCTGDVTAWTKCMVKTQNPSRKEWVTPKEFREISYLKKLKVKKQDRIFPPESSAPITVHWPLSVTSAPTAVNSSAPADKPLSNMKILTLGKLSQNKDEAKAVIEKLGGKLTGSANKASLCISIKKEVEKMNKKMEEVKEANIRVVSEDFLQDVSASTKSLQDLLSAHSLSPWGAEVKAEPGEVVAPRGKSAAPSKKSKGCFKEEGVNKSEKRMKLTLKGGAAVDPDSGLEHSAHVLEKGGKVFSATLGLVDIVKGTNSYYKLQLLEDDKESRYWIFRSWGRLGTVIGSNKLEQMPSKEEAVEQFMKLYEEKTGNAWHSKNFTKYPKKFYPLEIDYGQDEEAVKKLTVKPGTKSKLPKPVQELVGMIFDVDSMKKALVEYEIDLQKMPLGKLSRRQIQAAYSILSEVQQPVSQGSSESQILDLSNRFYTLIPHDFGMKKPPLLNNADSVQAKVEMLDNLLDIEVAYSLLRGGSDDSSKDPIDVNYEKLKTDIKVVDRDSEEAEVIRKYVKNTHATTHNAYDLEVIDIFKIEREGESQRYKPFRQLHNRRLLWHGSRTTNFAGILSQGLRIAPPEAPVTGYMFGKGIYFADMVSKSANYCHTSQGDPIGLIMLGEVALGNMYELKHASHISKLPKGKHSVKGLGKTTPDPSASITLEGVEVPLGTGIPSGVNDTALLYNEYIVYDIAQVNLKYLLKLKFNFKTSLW

IC50 (purified PARS enzyme) [µM] | EC50 (PARS) [µM] | Structure (SMILES)
– | 0.28 | CN(C)CCC(=O)Nc1cccc2c1Cc1c-2[nH]c(=O)c2ccccc12 [Compound 3b]
– | 0.2 | CN(C)CC(=O)Nc1cccc2c1Cc1c-2[nH]c(=O)c2ccccc12 [Compound 3a]

The remaining lines, values behind:

Structure (SMILES) | IC50 (purified PARS enzyme) [µM] | EC50 (PARS) [µM]
CN(C)CC(=O)Nc1ccc2c(c1)-c1[nH]c(=O)c3ccccc3c1C2 [Compound 56a, N-[5,6-Dihydro-5-oxo-indeno[1,2-c]isoquinolin-8-yl]-N,N-dimethylacetamide] | 0.8 | –
CCCNC(=O)Nc1ccc2c(c1)Cc1c-2[nH]c(=O)c2ccccc12 [Compound 27] | 0.1 | –
O=C(CN1CC=C(c2ccccc2)CC1)Nc1ccc2c(c1)Cc1c-2[nH]c(=O)c2ccccc12 [Compound 12a, N-(5-Oxo-5,11-dihydro-6H-indeno[1,2-c]isoquinolin-9-yl)-2-(4-phenyl-3,6-dihydro-2H-pyridin-1-yl)-acetamide] | 0.08 | –
